Results as given in patent US20240090503A1, “FUNGICIDAL OXADIAZOLES AND THEIR MIXTURES” (FMC CORPORATION, priority 2020, published 2024).
Like-named read-outs stand apart in the source and are kept apart here. One block for each compound: values may come before it.

Legend:
[1] = tested on: Phakopsora pachyrhizi (the causal agent of Asian soybean rust); assay: Test A: preventive spray on soybean seedlings, Asian soybean rust, visual disease rating; assay type: in vivo; conditions: Phakopsora pachyrhizi, 216 h, soybean seedlings, 100 = 100% disease control, 0 = no control; for pest or weed control at 10 ppm: 10 ppm test suspension
Summary of the method: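 Compound in acetone/water (50/50) with 250 ppm PEG400 sprayed to run-off on soybean seedlings; inoculated next day with Phakopsora pachyrhizi spores. Held 24 h at 22° C in saturated atmosphere, then 8 days in a 22° C growth chamber before visual rating as % disease control relative to controls.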

[2] = tested on: Zymoseptoria tritici (the causal agent of wheat leaf blotch); assay: Test B: preventive spray on wheat seedlings, wheat leaf blotch, visual disease rating; assay type: in vivo; conditions: Zymoseptoria tritici, 456 h, wheat seedlings; for pest or weed control at 250 ppm: 250 ppm test suspension, 100 = 100% disease control
Summary of the method: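 This is a preventive test: spray application preceded Zymoseptoria tritici spore inoculation by one day. Test suspensions were in acetone/water with 250 ppm PEG400 surfactant, at the listed ppm rate. After 48 h saturated humidity at 24° C and 17 days at 20° C, visual ratings scored control from 0 to 100%.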

[3] = tested on: Puccinia recondita f. sp. tritici (the causal agent of wheat leaf rust); assay: Test C: preventive spray on wheat seedlings, wheat leaf rust, visual disease rating; assay type: in vivo; conditions: Puccinia recondita, 168 h, wheat seedlings; for pest or weed control at 10 ppm: 10 ppm test suspension
Summary of the method: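 Wheat seedlings sprayed to run-off with compound in acetone/water (50/50) with 250 ppm PEG400, then inoculated with spores the following day. After 24 h saturated humidity at 20° C. and 6 days in growth chamber at 20° C., disease rated visually as % control relative to untreated controls.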

[4] = tested on: Phakopsora pachyrhizi (the causal agent of Asian soybean rust); assay: Test E: compounds alone and mixtures sprayed on soybean seedlings, Asian soybean rust, observed and Colby-expected disease control; assay type: in vivo
Text: The general protocol for preparing test compositions for TEST E was as follows: Compound 316, Compound 376, Compound 225, Compound 229, Compound 257, Compound 394, Compound 506, Compound 507, Compound 508, Compound 509, Compound 511, Compound 512, methyl N-[[5-[1-[2,6-difluoro-4-(1-methylethyl)phenyl]-1H-pyrazol-3-yl]-2-methylphenyl]methyl]carbamate (b54.11a), methyl N-[[5-[l-(4-cyclopropyl-2,6-difluorophenyl)-1H-pyrazol-3-yl]-2-methylphenyl]methyl]carbamate (b54.11d), ethyl 1-[[4-[[(1Z)-2-ethoxy-3,3,3-trifluoro-1-propen-1-yl]oxy]phenyl]methyl]-1H-pyrazole-4-carboxylate (b54.12a), ethyl 1-[[4-[[2-(trifluoromethyl)-1,3-dioxolan-2-yl]methoxy]phenyl]methyl]-1H-pyrazole-4-carboxylate (b54.13a), azoxystrobin, benzovindiflupyr, bixafen, chlorothalonil, cyproconazole, epoxiconazole, fenpropidin, fenpropimorph, fluindapyr, flutriafol, fluxapyroxad, inpyrfluxam, metominostrobin, picoxystrobin, prothioconazole, pydiflumetofen, pyraclostrobin, tebuconazole and trifloxystrobin were obtained as unformulated, technical-grade materials. Copper hydroxide and mancozeb was obtained as a formulated product marketed under the trademarks KOCIDE 3000 and MANZATE, respectively. Unformulated materials were first dissolved in acetone and then suspended at the desired concentration (in ppm) in acetone and purified water (50/50 mixture by volume) containing 250 ppm of the surfactant Trem® 014 (polyhydric alcohol esters). Formulated materials were dispersed in sufficient water to give the desired concentration, and neither organic solvent nor surfactant was added to the suspension. The resulting test mixtures were then used in TEST E. The tests were run on four individual plants and the results reported as the mean average of the four plants.
The presence of a synergistic effect between two active ingredients can be established with the aid of the Colby equation (see Colby, S. R. “Calculating Synergistic and Antagonistic Responses of Herbicide Combinations”, Weeds, (1967), 15, 20-22):
Using the method of Colby, the presence of a synergistic interaction between two active ingredients is established by first calculating the predicted activity, p, of the mixture based on activities of the two components applied alone. If p is lower than the experimentally established effect, synergism has occurred. In the equation above, A is the fungicidal activity in percentage control of one component applied alone at rate x. The B term is the fungicidal activity in percentage control of the second component applied at rate y. The equation estimates p, the expected fungicidal activity of the mixture of A at rate x with B at rate y if their effects are strictly additive and no interaction has occurred.
The test mixture was sprayed to the point of run-off on soybean seedlings. The following day the seedlings were inoculated with a spore suspension of Phakopsora pachyrhizi (the causal agent of Asian soybean rust) and incubated in a saturated atmosphere at 22° C. for 24 h and then moved to a growth chamber at 22° C. for 8 days, after which time visual disease ratings were made.
Results for Test E are given below in Tables A-1 through K-2. Each table corresponds to a set of evaluations performed together at the same time. In each table, a rating of 100 indicates 100% disease control and a rating of 0 indicates no disease control (relative to the controls). Columns labeled “Obsd” indicate the average of results observed from test run on four individual plants. Columns labeled “Exp” indicate the expected value for each treatment mixture using the Colby equation, as described above.

[5] = 100 = 100% disease control, 0 = no control
[6] = Phakopsora pachyrhizi, Compound 509 alone, read-out: Test E Obsd
[7] = Phakopsora pachyrhizi, applied alone, read-out: Test E Obsd
[8] = Phakopsora pachyrhizi, Compound 511 alone, read-out: Test E Obsd
[9] = Phakopsora pachyrhizi, Compound 512 alone, read-out: Test E Obsd

Structure (SMILES): O=C(NCC(F)(F)F)c1coc(Cc2ccc(-c3noc(C(F)(F)F)n3)cc2)n1 [Compound 316, N-(2,2,2-trifluoroethyl)-2-[[4-[5-(trifluoromethyl)-1,2,4-oxadiazol-3-yl]phenyl]methyl]-4-oxazolecarboxamide]
- pest or weed control at 10 µg/mL ([1]; test suspension 10 ppm, read-out: Test A disease control rating): 100%
- pest or weed control at 250 µg/mL ([2]; test suspension 250 ppm): 5%
- pest or weed control at 10 µg/mL ([3]; test suspension 10 ppm, read-out: Test C disease control rating): 100%
- pest or weed control at 0.471 ppm ([4]; Phakopsora pachyrhizi, Compound 316 alone, 0.471 ppm, read-out: Test E Obsd): 24%
- pest or weed control at 0.764 ppm ([4]; Phakopsora pachyrhizi, Compound 316 alone, 0.764 ppm, read-out: Test E Obsd): 82%
- pest or weed control at 0.471 ppm ([4]; Phakopsora pachyrhizi, Table A-1, Compound 316 0.471 ppm alone, read-out: Test E Obsd (disease control rating)): 59%
- pest or weed control at 0.764 ppm ([4]; Phakopsora pachyrhizi, Table A-1, Compound 316 0.764 ppm alone, read-out: Test E Obsd (disease control rating)): 75%
- pest or weed control at 0.471 ppm ([4]; Phakopsora pachyrhizi, Table B-1, Compound 316 0.471 ppm alone, read-out: Test E Obsd (disease control rating)): 22%
- pest or weed control at 0.764 ppm ([4]; Phakopsora pachyrhizi, Table B-1, Compound 316 0.764 ppm alone, read-out: Test E Obsd (disease control rating)): 54%
- pest or weed control at 0.471 ppm ([4]; Phakopsora pachyrhizi, Table C-1, Compound 316 0.471 ppm alone, read-out: Test E Obsd (disease control rating)): 49%
- pest or weed control at 0.764 ppm ([4]; Phakopsora pachyrhizi, Table C-1, Compound 316 0.764 ppm alone, read-out: Test E Obsd (disease control rating)): 66%
- pest or weed control at 0.471 ppm ([4]; Phakopsora pachyrhizi, Table D-1, Compound 316 0.471 ppm alone, read-out: Test E Obsd (disease control rating)): 20%
- pest or weed control at 0.764 ppm ([4]; Phakopsora pachyrhizi, Table D-1, Compound 316 0.764 ppm alone, read-out: Test E Obsd (disease control rating)): 70%
- pest or weed control at 0.471 ppm ([4]; Phakopsora pachyrhizi, Table F-1, Compound 316 0.471 ppm alone, read-out: Test E Obsd (disease control rating)): 61%
- pest or weed control at 0.764 ppm ([4]; Phakopsora pachyrhizi, Table F-1, Compound 316 0.764 ppm alone, read-out: Test E Obsd (disease control rating)): 68%
- pest or weed control at 0.471 ppm ([4]; Phakopsora pachyrhizi, Table G-1, Compound 316 0.471 ppm alone, read-out: Test E Obsd (disease control rating)): 31%
- pest or weed control at 0.764 ppm ([4]; Phakopsora pachyrhizi, Table G-1, Compound 316 0.764 ppm alone, read-out: Test E Obsd (disease control rating)): 64%
- pest or weed control at 0.471 ppm ([4]; Phakopsora pachyrhizi, Table H-1, Compound 316 0.471 ppm alone, read-out: Test E Obsd (disease control rating)): 44%
- pest or weed control at 0.764 ppm ([4]; Phakopsora pachyrhizi, Table H-1, Compound 316 0.764 ppm alone, read-out: Test E Obsd (disease control rating)): 80%
- pest or weed control at 0.471 ppm ([4]; Table E-1, Compound 316 0.471 ppm alone, read-out: Test E Obsd (disease control rating)): 61%
- pest or weed control at 0.764 ppm ([4]; Table E-1, Compound 316 0.764 ppm alone, read-out: Test E Obsd (disease control rating)): 58%
- melting point: 164 to 168 °C

Structure (SMILES): COCCNC(=O)c1csc(Cc2ccc(-c3noc(C(F)(F)F)n3)cc2)n1 [Compound 394, N-(2-methoxyethyl)-2-[[4-[5-(trifluoromethyl)-1,2,4-oxadiazol-3-yl]phenyl]methyl]-4-thiazolecarboxamide]
- pest or weed control at 10 ppm [1]: 100%
- pest or weed control at 250 ppm [2]: 99%
- pest or weed control at 10 ppm [3, 5]: 100%
- pest or weed control at 0.241 ppm ([4]; Phakopsora pachyrhizi, applied alone, 0.241 ppm, read-out: Test E Obsd): 4%
- melting point: 83 to 87 °C

Structure (SMILES): Cn1nc(C(=O)NCC(F)(F)F)cc1Cc1ccc(-c2noc(C(F)(F)F)n2)cc1 [Compound 509, 1-methyl-N-(2,2,2-trifluoroethyl)-5-[[4-[5-(trifluoromethyl)-1,2,4-oxadiazol-3-yl]phenyl]methyl]-1H-pyrazole-3-carboxamide]
- pest or weed control at 50 ppm ([1]; 50 ppm test suspension): 100%
- pest or weed control at 50 ppm ([3]; 50 ppm test suspension, 100 = 100% disease control, 0 = no control): 99%
- pest or weed control at 2.796 ppm [4, 6]: 36%
- pest or weed control at 5.625 ppm [4, 6]: 47%
- pest or weed control at 2.796 ppm [4, 7]: 54%
- pest or weed control at 5.625 ppm [4, 7]: 35%
- melting point: 142 to 142.9 °C

Continued, in another order:

- melting point: 80 to 85 °C
Structure (SMILES): COCCNC(=O)c1noc(Cc2ccc(-c3noc(C(F)(F)F)n3)cc2)n1 [Compound 511, N-(2-methoxyethyl)-5-[[4-[5-(trifluoromethyl)-1,2,4-oxadiazol-3-yl]phenyl]methyl]-1,2,4-oxadiazole-3-carboxamide]
- pest or weed control at 250 ppm ([1]; 250 ppm test suspension): 100%
- pest or weed control at 250 ppm [2]: 90%
- pest or weed control at 250 ppm ([3]; 250 ppm test suspension, 100 = 100% disease control, 0 = no control): 100%
- pest or weed control at 2.436 ppm [4, 8]: 21%
- pest or weed control at 4.926 ppm [4, 8]: 68%
- pest or weed control at 2.436 ppm [4, 7]: 40%
- pest or weed control at 4.926 ppm [4, 7]: 66%

- melting point: 156 to 160 °C
Structure (SMILES): Cn1nc(Cc2ccc(-c3noc(C(F)(F)F)n3)cc2)cc1C(=O)NCC(F)(F)F [Compound 512, 1-methyl-N-(2,2,2-trifluoroethyl)-3-[[4-[5-(trifluoromethyl)-1,2,4-oxadiazol-3-yl]phenyl]methyl]-1H-pyrazole-5-carboxamide]
- pest or weed control at 10 ppm [1]: 100%
- pest or weed control at 250 ppm [2]: 98%
- pest or weed control at 10 ppm [3, 5]: 100%
- pest or weed control at 1.893 ppm [4, 9]: 9%
- pest or weed control at 3.829 ppm [4, 9]: 58%
- pest or weed control at 1.893 ppm [4, 7]: 14%
- pest or weed control at 3.829 ppm [4, 7]: 66%
